Measurements: ChEMBL document CHEMBL5260833, “An overview of quinazolines: Pharmacological significance and recent developments” (Eur J Med Chem, 2018)

Assays:
[1] = biological target: T1, Type-1 angiotensin II receptor A (Rattus norvegicus, UniProt P25095); assay: Inhibition of rat adrenal cortex angiotensin II; format: tissue-based
T1 sequence (P25095 whole entry): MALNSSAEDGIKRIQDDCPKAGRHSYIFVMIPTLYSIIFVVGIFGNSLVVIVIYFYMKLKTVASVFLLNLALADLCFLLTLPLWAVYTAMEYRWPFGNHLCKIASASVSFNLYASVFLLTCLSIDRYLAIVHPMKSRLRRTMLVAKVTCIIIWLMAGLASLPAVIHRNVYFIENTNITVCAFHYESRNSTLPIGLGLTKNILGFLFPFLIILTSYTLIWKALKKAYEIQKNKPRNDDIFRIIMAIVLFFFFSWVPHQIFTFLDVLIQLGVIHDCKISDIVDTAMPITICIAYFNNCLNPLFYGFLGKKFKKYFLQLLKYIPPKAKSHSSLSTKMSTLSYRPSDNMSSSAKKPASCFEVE

[2] = system: Rattus norvegicus; assay: Inhibition of AII induced rat assessed as vasoconstrictor at 15 mg/kg, iv; format: functional
[3] = biological target: T2, Type-2 angiotensin II receptor (Rattus norvegicus, UniProt P35351); assay: Binding affinity to AT2 in rat brain; format: tissue-based
T2 sequence (P35351 whole entry): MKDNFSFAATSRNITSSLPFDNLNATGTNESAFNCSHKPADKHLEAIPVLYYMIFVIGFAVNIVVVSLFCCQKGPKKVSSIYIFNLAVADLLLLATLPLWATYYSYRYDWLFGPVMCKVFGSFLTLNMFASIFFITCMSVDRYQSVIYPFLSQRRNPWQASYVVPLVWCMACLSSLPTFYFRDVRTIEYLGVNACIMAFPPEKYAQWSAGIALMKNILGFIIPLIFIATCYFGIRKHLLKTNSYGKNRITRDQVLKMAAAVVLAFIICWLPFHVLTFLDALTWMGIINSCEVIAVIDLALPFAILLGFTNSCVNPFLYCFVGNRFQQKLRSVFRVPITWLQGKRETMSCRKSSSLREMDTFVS

[4] = system: Rattus norvegicus; assay: Inhibition of AII induced mean arterial blood pressure in rat assessed as vasoconstrictor at 5 mg/kg, po; format: functional
[5] = system: Fusarium graminearum; assay: Antifungal activity against Gibberella zeae assessed as bacterial growth inhibition at 50 ug/ml incubated for 5 days relative to control; format: functional; settings: 120 h, time 5 day
[6] = system: Cytospora mali; assay: Antifungal activity against Valsa mali assessed as bacterial growth inhibition at 50 ug/ml incubated for 5 days relative to control; format: functional; settings: 120 h, time 5 day
[7] = system: Fusarium oxysporum; assay: Antifungal activity against Fusarium oxysporum assessed as bacterial growth inhibition at 50 ug/ml incubated for 5 days relative to control; format: functional; settings: 120 h, time 5 day
[8] = system: Rattus norvegicus; assay: Inhibition of AII induced mean arterial blood pressure in rat assessed as vasoconstrictor at 1 mg/kg, po; format: functional

SMILES: CCCCC1Nc2ccc(C(C)C)cc2C(=O)N1Cc1ccc(-c2ccccc2-c2nn[nH]n2)cc1 (stereo unspecified)
- IC50 [1]: 1100 nM
- inhibition in vivo at 15 mg/kg [2]: 88%

SMILES: CCCC1Nc2ccccc2C(=O)N1Cc1ccc(-c2ccccc2-c2nn[nH]n2)cc1 (stereo unspecified)
- IC50 [1]: 540 nM
- inhibition in vivo at 15 mg/kg [2]: 88%

SMILES: CCc1nc2ccc(N(Cc3ccccc3)C(=O)c3ccncc3)cc2c(=O)n1Cc1ccc(-c2ccccc2-c2nn[nH]n2)cc1
- IC50 [3]: 0.22 nM

SMILES: CCc1nc2ccc(N(CC=C(C)C)C(=O)c3ccccc3)cc2c(=O)n1Cc1ccc(-c2ccccc2-c2nn[nH]n2)cc1
- IC50 [3]: 0.46 nM

SMILES: CCCCc1nc2ccc(C(CC)OC)cc2c(=O)n1Cc1ccc(-c2ccccc2-c2nn[nH]n2)cc1 (stereo unspecified)
- IC50 [1]: 18 nM
- Activity [4]: 65 mmHg

SMILES: Cc1nc2ccc(N(Cc3ccccc3Cl)C(=O)c3ccccc3)cc2c(=O)n1Cc1ccc(-c2ccccc2-c2nn[nH]n2)cc1
- IC50 [3]: 0.06 nM

SMILES: CC(C)c1nc2ccc(N(Cc3ccccc3)C(=O)c3ccccc3)cc2c(=O)n1Cc1ccc(-c2ccccc2-c2nnn[nH]2)cc1
- IC50 [3]: 0.22 nM

SMILES: C=CCn1cnc2ccc(F)cc2c1=O
- inhibition at 50 µg/mL [5]: 5.5%
- inhibition at 50 µg/mL [6]: 0.9%
- inhibition at 50 µg/mL [7]: 4.9%

SMILES: CCCCc1nc2ccc(COC)cc2c(=O)n1Cc1ccc(-c2ccccc2-c2nn[nH]n2)cc1
- IC50 [1]: > 1000 nM
- Activity [4]: 65 mmHg

SMILES: CCc1nc2ccc(N(Cc3ccccc3Cl)C(=O)c3ccccc3)cc2c(=O)n1Cc1ccc(-c2ccccc2-c2nn[nH]n2)cc1
- IC50 [3]: 0.22 nM

SMILES: CCCC1Nc2ccc(C(C)C)cc2C(=O)N1Cc1ccc(-c2ccccc2-c2nn[nH]n2)cc1 (stereo unspecified)
- IC50 [1]: 50 nM
- inhibition in vivo at 15 mg/kg [2]: 88%

SMILES: CCC1Nc2ccccc2C(=O)N1Cc1ccc(-c2ccccc2-c2nn[nH]n2)cc1 (stereo unspecified)
- IC50 [1]: 45000 nM
- inhibition in vivo at 15 mg/kg [2]: 88%

SMILES: CCCCC1Nc2ccccc2C(=O)N1Cc1ccc(-c2ccccc2-c2nn[nH]n2)cc1 (stereo unspecified)
- IC50 [1]: 14000 nM
- inhibition in vivo at 15 mg/kg [2]: 88%

SMILES: CCc1nc2ccc(N(Cc3ccccc3)C(=O)c3cccs3)cc2c(=O)n1Cc1ccc(-c2ccccc2-c2nn[nH]n2)cc1
- IC50 [3]: 0.22 nM

SMILES: CCCn1cnc2ccc(Br)cc2c1=O
- inhibition at 50 µg/mL [5]: 55%
- inhibition at 50 µg/mL [6]: 0.9%
- inhibition at 50 µg/mL [7]: 47.2%

SMILES: CCCCc1nc2ccc(C(C)(C)O)cc2c(=O)n1Cc1ccc(-c2ccccc2-c2nn[nH]n2)cc1
- IC50 [1]: 5 nM
- Activity [4]: 65 mmHg

SMILES: CCCCCN(C(=O)c1ccccc1)c1ccc2nc(CCC)n(Cc3ccc(-c4ccccc4-c4nn[nH]n4)cc3)c(=O)c2c1
- IC50 [3]: 1 nM

SMILES: CCCCc1nc2ccc([C@@]3(C)C[C@H]4CC[C@H](C)N4O3)cc2c(=O)n1Cc1ccc(-c2ccccc2-c2nnn[nH]2)cc1
- Activity [8]: 55 mmHg

SMILES: CCCCC(CCCC)C1Nc2ccccc2C(=O)N1Cc1ccc(-c2ccccc2-c2nnn[nH]2)cc1 (stereo unspecified)
- IC50 [1]: 12000 nM
- inhibition in vivo at 15 mg/kg [2]: 88%

SMILES: CCCCc1nc2ccc(C(C)O)cc2c(=O)n1Cc1ccc(-c2ccccc2-c2nn[nH]n2)cc1 (stereo unspecified)
- IC50 [1]: 5 nM
- Activity [4]: 65 mmHg

SMILES: CCCC1N(Cc2ccc(-c3ccccc3-c3nn[nH]n3)cc2)C(=O)c2ccccc2N1C (stereo unspecified)
- IC50 [1]: 540 nM
- inhibition in vivo at 15 mg/kg [2]: 88%

SMILES: CCCc1nc2ccc(N(Cc3ccccc3)C(=O)OC(C)(C)C)cc2c(=O)n1Cc1ccc(-c2ccccc2-c2nnn[nH]2)cc1
- IC50 [3]: 0.46 nM

SMILES: CCn1cnc2ccc(Cl)cc2c1=O
- inhibition at 50 µg/mL [5]: 5.5%
- inhibition at 50 µg/mL [6]: 0.9%
- inhibition at 50 µg/mL [7]: 4.9%

SMILES: CCCCc1nc2ccc(C(O)CO)cc2c(=O)n1Cc1ccc(-c2ccccc2-c2nn[nH]n2)cc1 (stereo unspecified)
- IC50 [1]: > 1000 nM
- Activity [4]: 65 mmHg

SMILES: Cc1nc2ccc(N(Cc3ccccc3)C(=O)c3ccccc3)cc2c(=O)n1Cc1ccc(-c2ccccc2-c2nnn[nH]2)cc1
- IC50 [3]: 0.22 nM

SMILES: CCCCc1nc2ccc([C@@]3(CO)C[C@H]4CCCN4O3)cc2c(=O)n1Cc1ccc(-c2ccccc2-c2nnn[nH]2)cc1
- Activity [8]: 55 mmHg

SMILES: CCn1cnc2ccc(F)cc2c1=O
- inhibition at 50 µg/mL [5]: 5.5%
- inhibition at 50 µg/mL [6]: 0.9%
- inhibition at 50 µg/mL [7]: 4.9%

SMILES: CCCCc1nc2ccc([C@H]3C[C@@]4(C)CCCCN4O3)cc2c(=O)n1Cc1ccc(-c2ccccc2-c2nnn[nH]2)cc1
- Activity [8]: 55 mmHg

SMILES: CCCCc1nc2ccc(C(C)OC)cc2c(=O)n1Cc1ccc(-c2ccccc2-c2nn[nH]n2)cc1 (stereo unspecified)
- IC50 [1]: 18 nM
- Activity [4]: 65 mmHg

SMILES: CCCn1cnc2ccc(Cl)cc2c1=O
- inhibition at 50 µg/mL [5]: 5.5%
- inhibition at 50 µg/mL [6]: 40.9%
- inhibition at 50 µg/mL [7]: 4.9%

SMILES: CCn1cnc2ccc(Br)cc2c1=O
- inhibition at 50 µg/mL [5]: 5.5%
- inhibition at 50 µg/mL [6]: 0.9%
- inhibition at 50 µg/mL [7]: 4.9%

SMILES: CCCCc1nc2ccc(C(O)C(C)(C)C)cc2c(=O)n1Cc1ccc(-c2ccccc2-c2nn[nH]n2)cc1 (stereo unspecified)
- IC50 [1]: > 1000 nM
- Activity [4]: 65 mmHg

SMILES: CCCCc1nc2ccc([C@@]3(C)C[C@H]4CCCN4O3)cc2c(=O)n1Cc1ccc(-c2ccccc2-c2nn[nH]n2)cc1
- Activity [8]: 55 mmHg

SMILES: CCCn1cnc2ccccc2c1=O
- inhibition at 50 µg/mL [5]: 5.5%
- inhibition at 50 µg/mL [6]: 0.9%
- inhibition at 50 µg/mL [7]: 4.9%

SMILES: CC(C)c1nc2ccc(N(Cc3ccccc3)C(=O)c3cccs3)cc2c(=O)n1Cc1ccc(-c2ccccc2-c2nnn[nH]2)cc1
- IC50 [3]: 0.22 nM

SMILES: Cc1cc(O)no1 [HYMEXAZOL]
- inhibition at 50 µg/mL [5]: 50.4%
- inhibition at 50 µg/mL [6]: 22.5%
- inhibition at 50 µg/mL [7]: 55.4%

SMILES: CCCCc1nc2ccc([C@@]3(C(=O)N(C)C)C[C@H]4CCCN4O3)cc2c(=O)n1Cc1ccc(-c2ccccc2-c2nnn[nH]2)cc1
- Activity [8]: 55 mmHg

SMILES: CCC1Nc2ccc(C)cc2C(=O)N1Cc1ccc(-c2ccccc2-c2nn[nH]n2)cc1 (stereo unspecified)
- IC50 [1]: 13000 nM
- inhibition in vivo at 15 mg/kg [2]: 88%

SMILES: C=CCn1cnc2ccccc2c1=O
- inhibition at 50 µg/mL [5]: 5.5%
- inhibition at 50 µg/mL [6]: 0.9%
- inhibition at 50 µg/mL [7]: 4.9%

SMILES: C=CCn1cnc2ccc(Cl)cc2c1=O
- inhibition at 50 µg/mL [5]: 5.5%
- inhibition at 50 µg/mL [6]: 28.3%
- inhibition at 50 µg/mL [7]: 4.9%

SMILES: CCCCc1nc2ccc(C(C)NC(C)=O)cc2c(=O)n1Cc1ccc(-c2ccccc2-c2nn[nH]n2)cc1 (stereo unspecified)
- IC50 [1]: > 1000 nM
- Activity [4]: 65 mmHg

SMILES: C=CCn1cnc2ccc(Br)cc2c1=O
- inhibition at 50 µg/mL [5]: 5.5%
- inhibition at 50 µg/mL [6]: 30.4%
- inhibition at 50 µg/mL [7]: 4.9%

SMILES: CCCCc1nc2ccc([C@@]3(C(=O)O)C[C@H]4CCCN4O3)cc2c(=O)n1Cc1ccc(-c2ccccc2-c2nnn[nH]2)cc1
- Activity [8]: 55 mmHg

SMILES: CCC1Nc2ccc(C(C)C)cc2C(=O)N1Cc1ccc(-c2ccccc2-c2nn[nH]n2)cc1 (stereo unspecified)
- IC50 [1]: 90 nM
- inhibition in vivo at 15 mg/kg [2]: 88%

SMILES: CCCn1cnc2ccc(F)cc2c1=O
- inhibition at 50 µg/mL [5]: 5.5%
- inhibition at 50 µg/mL [6]: 0.9%
- inhibition at 50 µg/mL [7]: 4.9%

SMILES: CCCCC1N(Cc2ccc(-c3ccccc3-c3nn[nH]n3)cc2)C(=O)c2ccccc2N1C (stereo unspecified)
- IC50 [1]: 14000 nM
- inhibition in vivo at 15 mg/kg [2]: 88%

SMILES: CCCCc1nc2ccc(C(C)(C)OC)cc2c(=O)n1Cc1ccc(-c2ccccc2-c2nn[nH]n2)cc1 [CL-329167]
- IC50 [1]: 18 nM
- Activity [4]: 65 mmHg

SMILES: CCCCc1nc2ccc([C@H]3C[C@H]4CC[C@H](C)N4O3)cc2c(=O)n1Cc1ccc(-c2ccccc2-c2nnn[nH]2)cc1
- Activity [8]: 55 mmHg

SMILES: CCn1cnc2ccccc2c1=O
- inhibition at 50 µg/mL [5]: 5.5%
- inhibition at 50 µg/mL [6]: 0.9%
- inhibition at 50 µg/mL [7]: 4.9%

SMILES: CCCCc1nc2ccc(C(OC)c3ccccc3)cc2c(=O)n1Cc1ccc(-c2ccccc2-c2nn[nH]n2)cc1 (stereo unspecified)
- IC50 [1]: > 1000 nM
- Activity [4]: 65 mmHg
